Test: Part 2 (MAD): plasma pharmacokinetics after BID oral KAR5585 for 14 days (incl. accumulation ratios and dose proportionality)
[1] = 100 mg (Cohort 2) to 400 mg (Cohort 4), 4-fold increase in dose, fed
[2] = 100 mg KAR5585 BID, fasted, Cohort 1
[3] = 100 mg KAR5585 BID, fasted, Part 2 Cohort 1, mean
[4] = 100 mg KAR5585 BID, fed, Cohort 2
[5] = 100 mg KAR5585 BID, fed, Part 2 Cohort 2, mean
[6] = KAR5585 100 mg BID fasted, Cohort 1, Day 1 AM, geo. mean
[7] = KAR5585 100 mg BID fasted, Cohort 1, Day 1 AM, mean
[8] = KAR5585 100 mg BID fasted, Cohort 1, Day 14/Day 1 accumulation ratio, geo. mean
[9] = KAR5585 100 mg BID fasted, Cohort 1, Day 14/Day 1 accumulation ratio, mean
[10] = KAR5585 100 mg BID fasted, Cohort 1, Day 14, geo. mean
[11] = KAR5585 100 mg BID fasted, Cohort 1, Day 14, mean
[12] = KAR5585 100 mg BID fed, Cohort 2, Day 1 AM, geo. mean
[13] = KAR5585 100 mg BID fed, Cohort 2, Day 1 AM, mean
[14] = KAR5585 100 mg BID fed, Cohort 2, Day 1 PM, geo. mean
[15] = KAR5585 100 mg BID fed, Cohort 2, Day 1 PM, mean
[16] = KAR5585 100 mg BID fed, Cohort 2, Day 7 AM, Day 7/Day 1 accumulation ratio, geo. mean
[17] = KAR5585 100 mg BID fed, Cohort 2, Day 7 AM, Day 7/Day 1 accumulation ratio, mean
[18] = KAR5585 100 mg BID fed, Cohort 2, Day 7 AM, geo. mean
[19] = KAR5585 100 mg BID fed, Cohort 2, Day 7 AM, mean
[20] = KAR5585 100 mg BID fed, Cohort 2, Day 7 PM, Day 7/Day 1 accumulation ratio, geo. mean
[21] = KAR5585 100 mg BID fed, Cohort 2, Day 7 PM, Day 7/Day 1 accumulation ratio, mean
[22] = KAR5585 100 mg BID fed, Cohort 2, Day 7 PM, geo. mean
[23] = KAR5585 100 mg BID fed, Cohort 2, Day 7 PM, mean
[24] = KAR5585 100 mg BID fed, Cohort 2, Day 14 AM, Day 14/Day 1 accumulation ratio, geo. mean
[25] = KAR5585 100 mg BID fed, Cohort 2, Day 14 AM, Day 14/Day 1 accumulation ratio, mean
[26] = KAR5585 100 mg BID fed, Cohort 2, Day 14 AM, geo. mean
[27] = KAR5585 100 mg BID fed, Cohort 2, Day 14 AM, mean
[28] = KAR5585 200 mg BID fed, Cohort 3, Day 1 AM, geo. mean
[29] = KAR5585 200 mg BID fed, Cohort 3, Day 1 AM, mean
[30] = KAR5585 200 mg BID fed, Cohort 3, Day 1 PM, geo. mean

Source text: Food effect was to be evaluated in Part 1, Period 2.
Pharmacokinetic data were to be summarized descriptively.

For `Nc1nc(O[C@H](c2ccc(Cl)cc2-c2ccccc2)C(F)(F)F)cc(N2CCC3(CC2)CN[C@H](C(=O)O)C3)n1` [KAR5417, (S)-8-(2-amino-6-((R)-1-(5-chloro-[1,1T-biphenyl]-2-yl)-2,2,2-trifluoroeth-oxy)pyrimidin-4-yl)-2,8-diazaspiro[4.5]decane-3-carboxylic acid], the “fold increase in mean AUC0-12, Day 1” value [1] was 7.0 fold, the “fold increase in mean AUC0-12, Day 14” value [1] was 4.6 fold and the “fold increase in mean AUC0-24, Day 1” value [1] was 6.45 fold. The “fold increase in mean AUC0-24, Day 14” value [1] was 4.45 fold, the “fold increase in mean Cmax, Day 1” value [1] was 6.9 fold and the “fold increase in mean Cmax, Day 14” value [1] was roughly 4.5 fold. For the same molecule, the “RAUC0-12 (accumulation ratio for AUC0-12), range Day 7/Day 1 and Day 14/Day 1” value (100 mg KAR5585 BID) was 2.19-2.57, the “half-life, Day 14” value (100 mg KAR5585 BID, fasted) was 18.8 h and the “peak mean concentration of KAR5417 relative to KAR5585, Day 1” value [2] was “approximately 7.25 fold”. For the same molecule, the “peak mean concentration of KAR5417 relative to KAR5585, Day 14” value [2] was roughly 9.1 fold, the “time peak plasma concentrations were reached, Day 1” value [2] was 2.0 to 6.0 h and the “AUC0-12, Day 1” value [3] was 741 ng·h/mL. For the same molecule, the “AUC0-24, Day 14” value [3] was 1650 ng·h/mL, the “mean apparent elimination half-life, Day 14” value (100 mg KAR5585 BID, fed) was 19.6 h and the “Cmax (peak mean concentration), Day 1” value [4] was 85.9 ng/mL. The “Cmax (peak mean concentration), Day 14” value [4] was 168 ng/mL, the “mean Cmax plasma concentrations, range on all dosing days” value [4] was 85.9 to 168 ng/mL and the “AUC0-12, Day 1” value [5] was 470 ng·h/mL. The “AUC0-24, Day 14” value [5] was 1220 ng·h/mL, the “RAUC0-12 (accumulation ratio for AUC0-12), range Day 7/Day 1 and Day 14/Day 1” value (200 mg KAR5585 BID) was 1.09-1.34 and the “mean apparent elimination half-life, Day 14” value (200 mg KAR5585 BID, fed) was 25.0 h. For the same molecule, the “RAUC0-12 (accumulation ratio for AUC0-12), range Day 7/Day 1 and Day 14/Day 1” value (400 mg KAR5585 BID) was 1.65-2.38, the “mean apparent elimination half-life, Day 14” value (400 mg KAR5585 BID, fed) was 30.6 h and the “steady-state plasma levels achieved by” value (BID oral KAR5585 for 14 days) was no more than 7 days. The AUC0-12 [6] was 643 ng·h/mL, the “AUC0-∞” value [6] was 769 ng·h/mL and the C12 [6] was 19.5 ng/mL. The Cmax [6] was 101 ng/mL, the Cmax/D [6] was 1.01 (ng/ml)/mg and the t1/2 [6] was 3.37 h. For the same molecule, the AUC0-12 [7] was 741 ng·h/mL, the “AUC0-∞” value [7] was 876 ng·h/mL and the C12 [7] was 21.3 ng/mL. For the same molecule, the Cmax/D [7] was 1.21 (ng/ml)/mg, the t1/2 [7] was 3.43 h and the RAUC0-12 [8] was 1.64. The RCmax [8] was 1.75, the RAUC0-12 [9] was 1.83 and the RCmax [9] was 2.56. The AUC0-12 [10] was 1150 ng·h/mL, the AUC0-24 [10] was 1490 ng·h/mL and the AUC0-24/D [10] was 14.9 (hr*ng/ml)/mg. The “AUC0-∞” value [10] was 1960 ng·h/mL, the C12 [10] was 42.0 ng/mL and the C24 [10] was 18.1 ng/mL. For the same molecule, the Cmax [10] was 177 ng/mL, the Cmax/D [10] was 1.77 (ng/ml)/mg and the t1/2 [10] was 17.6 h. The AUC0-12 [11] was 1280 ng·h/mL, the AUC0-24 [11] was 1650 ng·h/mL and the AUC0-24/D [11] was 16.5 (hr*ng/ml)/mg. The “AUC0-∞” value [11] was 2220 ng·h/mL, the C12 [11] was 46.3 ng/mL and the Cmax/D [11] was 1.94 (ng/ml)/mg. For the same molecule, the t1/2 [11] was 18.8 h, the AUC0-12 [12] was 428 ng·h/mL and the “AUC0-∞” value [12] was 516 ng·h/mL. For the same molecule, the C12 [12] was 15.4 ng/mL, the Cmax [12] was 79.2 ng/mL and the Cmax/D [12] was 0.792 (ng/ml)/mg. For the same molecule, the t1/2 [12] was 4.16 h, the AUC0-12 [13] was 470 ng·h/mL and the “AUC0-∞” value [13] was 564 ng·h/mL. For the same molecule, the C12 [13] was 17.2 ng/mL, the Cmax [13] was 85.9 ng/mL and the Cmax/D [13] was 0.859 (ng/ml)/mg. For the same molecule, the t1/2 [13] was 4.18 h, the AUC0-12 [14] was 714 ng·h/mL and the AUC0-24/D [14] was 5.78 (hr*ng/ml)/mg. The “AUC0-∞” value [14] was 1090 ng·h/mL, the C12 [14] was 39.5 ng/mL and the Cmax [14] was 119 ng/mL. For the same molecule, the Cmax/D [14] was 1.19 (ng/ml)/mg, the t1/2 [14] was 6.95 h and the AUC0-12 [15] was 748 ng·h/mL. The AUC0-24 [15] was 1220 ng·h/mL, the AUC0-24/D [15] was 6.09 (hr*ng/ml)/mg and the “AUC0-∞” value [15] was 1140 ng·h/mL. The C12 [15] was 43.1 ng/mL, the Cmax [15] was 130 ng/mL and the Cmax/D [15] was 1.3 (ng/ml)/mg. It also gave a t1/2 [15] of 7.00 h, an RAUC0-12 [16] of 2.45 and an RCmax [16] of 2.02. For the same molecule, the RAUC0-12 [17] was 2.57, the RCmax [17] was 2.07 and the AUC0-12 [18] was 1050 ng·h/mL. For the same molecule, the “AUC0-∞” value [18] was 1380 ng·h/mL, the C12 [18] was 44.3 ng/mL and the Cmax/D [18] was 1.60 (ng/ml)/mg. For the same molecule, the t1/2 [18] was 5.24 h, the AUC0-12 [19] was 1080 ng·h/mL and the “AUC0-∞” value [19] was 1410 ng·h/mL. For the same molecule, the C12 [19] was 45.1 ng/mL, the Cmax [19] was 168 ng/mL and the Cmax/D [19] was 1.68 (ng/ml)/mg. The t1/2 [19] was 5.31 h, the RAUC0-12 [20] was 2.04 and the RCmax [20] was 1.34. The RAUC0-12 [21] was 2.19, the RCmax [21] was 1.43 and the AUC0-12 [22] was 875 ng·h/mL. For the same molecule, the AUC0-24 [22] was 1930 ng·h/mL, the AUC0-24/D [22] was 9.64 (hr*ng/ml)/mg and the “AUC0-∞” value [22] was 1700 ng·h/mL. For the same molecule, the C12 [22] was 61.4 ng/mL, the Cmax [22] was 106 ng/mL and the Cmax/D [22] was 1.06 (ng/ml)/mg. It also gave a t1/2 [22] of 7.91 h, an AUC0-12 [23] of 902 ng·h/mL and an AUC0-24 [23] of 1990 ng·h/mL. The AUC0-24/D [23] was 9.93 (hr*ng/ml)/mg, the “AUC0-∞” value [23] was 1730 ng·h/mL and the C12 [23] was 62.3 ng/mL. The Cmax/D [23] was 1.12 (ng/ml)/mg, the t1/2 [23] was 8.10 h and the RAUC0-12 [24] was 2.09. It also gave an RCmax [24] of 1.90, an RAUC0-12 [25] of 2.23 and an RCmax [25] of 1.98. The AUC0-12 [26] was 900 ng·h/mL, the AUC0-24 [26] was 1220 ng·h/mL and the “AUC0-∞” value [26] was 1780 ng·h/mL. The C12 [26] was 35.4 ng/mL, the C24 [26] was 19.3 ng/mL and the Cmax [26] was 155 ng/mL. The Cmax/D [26] was 1.55 (ng/ml)/mg, the t1/2 [26] was 19.0 h and the AUC0-12 [27] was 943 ng·h/mL. The AUC0-24 [27] was 1270 ng·h/mL, the “AUC0-∞” value [27] was 1830 ng·h/mL and the C12 [27] was 36.4 ng/mL. The C24 [27] was 19.6 ng/mL, the Cmax [27] was 168 ng/mL and the Cmax/D [27] was 1.68 (ng/ml)/mg. For the same molecule, the t1/2 [27] was 19.6 h, the AUC0-12 [28] was 1620 ng·h/mL and the “AUC0-∞” value [28] was 1980 ng·h/mL. For the same molecule, the C12 [28] was 56.6 ng/mL, the Cmax [28] was 336 ng/mL and the Cmax/D [28] was 1.68 (ng/ml)/mg. For the same molecule, the t1/2 [28] was 4.41 h, the AUC0-12 [29] was 1700 ng·h/mL and the C12 [29] was 60.7 ng/mL. The Cmax [29] was 357 ng/mL, the Cmax/D [29] was 1.79 (ng/ml)/mg and the t1/2 [29] was 4.49 h. The AUC0-12 [30] was 1910 ng·h/mL, the AUC0-24 [30] was 3540 ng·h/mL and the AUC0-24/D [30] was 8.85 (hr*ng/ml)/mg. The “AUC0-∞” value [30] was 2640 ng·h/mL, the C12 [30] was 102 ng/mL and the Cmax [30] was 307 ng/mL. The Cmax/D [30] was 1.54 (ng/ml)/mg.

Reference: patent US20240041877A1, “DOSAGE REGIME AND METHOD FOR TREATING PULMONARY ARTERIAL HYPERTENSION” (Altavant Sciences GmbH, priority 2019, published 2024)
